Results reported in patent publication US20100269215A1 (SNU R&DB Foundation, priority 2006, published 2010).

How the values were obtained:
[1] = system: TflA protein; test: Degradation of toxoflavin and its derivatives by TflA protein (TLC enzyme analysis); format: biochemical, Paenibacillus polymyxa JH2; conditions: within given time; see FIG. 8
Description: 5 μM TflA protein, 10 μM MnCl2 and 5 mM DTT (dithiothreitol) were added to analysis buffer (50 mM sodium phosphate (pH 6.5)) to give 200 μl mixture and the reaction was carried out at 25 °C. […] After 10 min of the reaction, 200 μl of chloroform was added to stop the reaction. The chloroform layer was dried completely, then 10 μl of 100% methanol was added. An aliquot taken from the reaction mixture comprising methanol was applied on a TLC plate using pipette. The resulting plate was placed in TLC chamber containing mixed solvents of chloroform and methanol (95:5, V:V) at room temperature. TLC was visualized under UV illuminator (254 nm and 365 nm).

[2] = system: Cn1ncnc2c(=O)n(C)c(=O)nc1-2; test: purified protein, by the assay type; conditions: other: toxoflavin 80-200 μM, 50 mM sodium phosphate pH 6.5, MnCl2 and DTT, Lineweaver-Burk plot
Description: Each of experimental points is a mean value that is calculated from data obtained from at least of three measurements.

[3] = system: leaves of the transgenic plants to which tflA gene has been introduced; test: Toxoflavin treatment of cut rice leaves, transgenic T3 plants; conditions: toxoflavin 0, 25, 50 or 100 μM, under light, 48 hrs
Description: (§1) Thus, the experiment of the present invention was carried out under light.

[4] = system: rice callus transformed with pCamLA vector; test: Survival of rice callus under selection with toxoflavin, pCamLA; format: cell-based
[5] = system: transgenic plants to which the toxoflavin-resistant gene has been incorporated; test: Seeds on MS plate containing toxoflavin, transgenic plants; format: in vivo, Arabidopsis thaliana; conditions: media comprising 20 uM toxoflavin; ten days
Description: Detailed method for the transformation is described below. • 1. […] 0.03% silwet was added to the suspension. • 4. […] The plants were wrapped with a plastic bag. Bags were removed two days later.
Roots were also growing well.

[6] = system: Arabidopsis Col-0, non-transgenic organisms; test: Germination and growth on toxoflavin medium, non-transgenic Arabidopsis; format: in vivo, Arabidopsis thaliana; conditions: 20 uM toxoflavin
[7] = system: Arabidopsis Col-0, non-transgenic organisms; test: Photo-bleaching test, non-transgenic Arabidopsis; format: in vivo, Arabidopsis thaliana
Description: (§2) Such results correspond to the result of PCR described above.

[8] = system: Arabidopsis Col-0; test: Photo-bleaching test, non-transgenic Arabidopsis; format: in vivo, Arabidopsis thaliana
Description: as §2

[9] = system: transgenic organisms; test: Photo-bleaching test, transgenic Arabidopsis; format: in vivo, Arabidopsis thaliana; conditions: transgenic organisms selected for the test; FIG. 24
Description: as §2

[10] = system: Arabidopsis Col-0, transgenic organisms with tflA; test: Photo-bleaching test, transgenic Arabidopsis; format: in vivo, Arabidopsis thaliana; conditions: FIG. 24
Description: as §2

[11] = system: rice callus transformed with pCamLA vector; test: Selection with toxoflavin of rice callus transformed with pCamLA; format: cell-based
[12] = system: rice callus transformed with pTflA vector; test: Selection with toxoflavin of rice callus transformed with pTflA; format: cell-based
[13] = system: leaves of wild rice; test: Toxoflavin treatment of cut rice leaves, wild type; conditions: toxoflavin 0, 25, 50 or 100 μM, under light; 40 hrs after the treatment
Description: as §1

[14] = system: non-transgenic organisms (Arabidopsis Col-0); test: Seeds on MS plate containing toxoflavin, non-transgenic organisms; format: in vivo, Arabidopsis thaliana; conditions: media comprising 20 uM toxoflavin; ten days
[15] = system: leaves of transgenic T3 rice plant with tflA gene; test: Toxoflavin treatment of leaf pieces, transgenic T3 rice plant expressing tflA; format: in vivo; conditions: 0, 25, 50 or 100 μM toxoflavin, 48 hrs, under light
Description: as §1

[16] = system: rice callus transformed with pTflA vector; test: Survival of rice callus under selection with toxoflavin, pTflA; format: cell-based
[17] = system: wild rice leaves (Dongjinbyeo wild-type plant); test: Toxoflavin treatment of leaf pieces, wild-type rice; format: in vivo; conditions: 0, 25, 50 or 100 μM toxoflavin, 48 hrs, under light; seen 40 hrs after treatment
Description: as §1

[18] = toxoflavin 5 ug/ml, before redifferentiation
[19] = toxoflavin 7.5 ug/ml, four weeks after placement on redifferentiation medium
[20] = various concentrations, even at low concentration
[21] = toxoflavin 5 ug/ml, selection before redifferentiation, FIG. 18

`Cn1c(=O)c2ncnnc2n(C)c1=O` [fervenulin] was tested, and the “degradation by TflA protein” value [1] was “partially degraded”.
“Paenibacillus polymyxa JH2 TflA protein, wild type, N-terminal His-tagged (His-TflA), SEQ ID NO: 2 (Paenibacillus polymyxa)” was tested, and the Km [2] was 69.72 µM.
In the case of `Cc1n[nH]c2nc(=O)n(C)c(=O)c-2n1` [3-methylreumycin], the “degradation by TflA protein” value [1] is reported as “completely degraded”.
With 4,8-dihydrotoxoflavin the “degradation by TflA protein” value [1] was “completely degraded”.
For `Cc1nc2c(=O)n(C)c(=O)nc-2n(C)n1` [3-methyltoxoflavin], the “degradation by TflA protein” value [1] was “completely degraded”.
`O=c1[nH]c(=O)c2cc3ccccc3nc2[nH]1` [5-deazaflavin] was tested, and the “degradation by TflA protein” value [1] was “not degraded at all”.
For `Cn1c(=O)nc2[nH]nc(-c3ccccc3)nc-2c1=O` [3-phenylreumycin], the “degradation by TflA protein” value [1] was “not degraded at all”.
For `Cn1c(=O)[nH]c2nncnc2c1=O` [reumycin], the “degradation by TflA protein” value [1] was “partially degraded”.
For `CC1=NN(C)c2[nH]c(=O)n(C)c(=O)c2N1` [3-methyl 4,8-dihydrotoxoflavin], the “degradation by TflA protein” value [1] was “partially degraded”.
`Cn1nc(-c2ccccc2)nc2c(=O)n(C)c(=O)nc1-2` [3-phenyltoxoflavin] was tested, and the “degradation by TflA protein” value [1] was “not degraded at all”.
In the case of `Cn1ncnc2c(=O)n(C)c(=O)nc1-2` [toxoflavin], the discoloration of leaves [3] is reported as “no such discoloration was observed”, the survival of callus [4, 18] is reported as “most of the callus died out” and the survival of callus [4, 19] is reported as “most of the callus died out”. For the same molecule, the growth [5] was “show normal growth”, the germination [6] was “germination did not occur for most of the non-transgenic organisms” and the “root growth where germination occurred” value [6] was “root growth was not normal”. For the same molecule, the photo-bleaching ([7]; bleaching test, FIG. 24) was “the bleaching occurred”, the bleaching effect [7, 20] was “even at low concentration toxoflavin exerts a bleaching effect” and the photo-bleaching ([8]; non-transgenic organisms, FIG. 24) was “the bleaching occurred”. For the same molecule, the “bleaching effect on the plant” value [8, 20] was “exerts a bleaching effect”, the photo-bleaching [9] was “photo-bleaching was not observed” and the photo-bleaching [10] was “photo-bleaching was not observed”. The survival of callus [11, 21] was “most of the callus died out”, the survival of callus ([11]; toxoflavin 7.5 ug/ml, four weeks after placement on medium for redifferentiation, FIG. 19) was “most of the callus died out” and the survival of callus [12, 21] was “only a part of the callus died out”. The survival of callus ([12]; toxoflavin 7.5 ug/ml, four weeks after placement on medium for redifferentiation, FIG. 20) was “the callus was redifferentiated normally”, the discoloration of leaves [13] was “discoloration due to the toxin started to show up” and the “degradation by TflA protein” value [1] was “completely degraded”. The “germination and root growth” value [14] was “germination did not occur for most of the non-transgenic organisms”, the discoloration of leaves [15] was “no such discoloration was observed” and the survival of callus [16, 18] was “only a part of the callus died out”. The survival of callus [16, 19] was “the callus was redifferentiated normally” and the discoloration of leaves [17] was “discoloration due to the toxin started to show up”.
